Test results as given in the NIST ThermoML archive (doi:10.1021/je100198g).
Numbers after ± are expanded uncertainties.

Details: 297.9 K, Liquid mixture 1, Pendant drop shape

interfacial tension (7020 kPa): 31.9 ± 0.7 mN/m | interfacial tension (8020 kPa): 31.9 ± 0.7 mN/m | interfacial tension (10010 kPa): 31.8 ± 0.7 mN/m | interfacial tension (14990 kPa): 30.6 ± 0.7 mN/m | interfacial tension (19990 kPa): 30 ± 0.7 mN/m
Compound: O=C=O [carbon dioxide] + O
